Results from patent publication US20050059627A1, “CRF2 ligands in combination therapy” (priority 2000, published 2005).
d = 2'-deoxy (DNA); m = 2'-O-methyl

Tests used:
CRF2 receptor mRNA = assay: Quantitative in situ hybridization of CRF2 receptor mRNA; format: in vivo, rodent; settings: 9 days dosing
Excerpt: The absence of functional changes resulting from small antisense inhibitory effects often leads to non-interpretable results. This is due to the uncertainty of whether the experiment produced truly negative results or whether the antisense inhibition was insufficient to reveal a functional change. In addition to the antisense sequence, the magnitude of antisense inhibitory effects is influenced by the duration of antisense treatment and its relation to the half-life of the targeted protein. While the half-life of the CRF2 receptor is unknown, half-lives of other 7-transmembrane receptors in rodent brain (of which the CRF2 receptor is a member) are on the order of 2-3 days. Maximal inhibitory effects are typically seen after antisense treatment for at least 3 protein half-lives. While CRF2 antisense administration for 5 days produced a 40-50% inhibition of the receptor, increasing the duration of dosing to 9 days led to a 70-80% inhibitory effect on receptor binding. […] Therefore, in contrast to Heinrichs et al. whose CRF2 antisense oligonucleotide produced only a 15-20% CRF2 receptor reduction concomitant with significant weight loss in the treated animals, we have optimized antisense reagents for the study of CRF2 receptor function.

rats [1] = assay: Freezing assay of anxiety (shock box); format: in vivo, rat
Method: CRF2 antisense oligonucleotides were administered intracerebroventricularly to target the lateral septum, a brain region containing high levels of CRF2 receptor and mRNA. The lateral septum is part of the limbic brain region known for its involvement in modulating fear and emotion. Rats treated with saline, antisense and mismatch-control oligonucleotides were tested in two different behavioral models of anxiety. Rodents display a characteristic freezing behavior when experiencing fear and anxiety. In the freezing model of anxiety, such behavior is induced by exposure to brief electrical foot-shocks. […] Administration of anxiolytic drugs such as benzodiazepines and selective serotonin reuptake inhibitors reduces the duration of freezing when previously shocked animals are returned to the shock box. In the antisense experiments, dosing of oligonucleotides began after two consecutive days of foot-shock treatment. Two hours following the last oligonucleotide administration on day 8 of dosing, rats were returned to the shock box and observed for 10 minutes. In this part of the experiment, which examines the effect of the pharmacological agent on conditioned fears, the antisense oligonucleotide, but not its mismatch control, reduced the duration of freezing by 50% (FIG. 3a). […] Furthermore, a robust suppression of CRF2 receptors produced important functional consequences that may not be apparent at lower levels of CRF2 receptor inhibition.
The shock box consisted of a black Plexiglas chamber with walls and cover. The doors of the box were constructed of clear Plexiglas over which one-way mirrors were attached for observation. The floor of the box contained a Coulbourn stainless steel shock grid with the bars of the grid spaced 1 cm apart. On the 8th day following surgical implantation of the guide cannulae, rats were placed in the box and allowed to habituate for 2 minutes. A total of 3 scrambled, randomized non-escapable foot-shocks (1.0 mA, 1 second duration) were then delivered at 20 second intervals to the grid floor. […]

rats [2] = assay: Elevated plus maze assay; format: in vivo, rat; settings: dosed 8 days, tested 2 hours after last injection; FIG. 4a
Excerpt: The elevated plus maze (EPM) is widely used for the determination of anxiolytic or anxiogenic drug effects. The apparatus consists of a +-shaped maze, elevated 50 cm above the floor. Two opposing arms are open and exposed to the environment while the other two arms are enclosed with black Plexiglas sides. In rodents, exposure to the EPM produces an approach/avoidance conflict which generally causes the animal to spend most of its time in the closed arms of the maze.
In the antisense experiment, rats were dosed for 8 days and then tested in the EPM 2 hours after the last oligonucleotide injection. […] Such behavior is indicative of a reduced state of anxiety. […] Binding of ^125I-sauvagine to CRF2 receptors in the lateral septum was reduced by 60% by the antisense oligonucleotide in this experiment (FIG. 4b).
Oligonucleotide treatment of rats was begun on the 8th day following surgery. Rats were tested in the EPM 2 hours following dosing on the 8th day of treatment. At the start of the test, the rat was placed in the center square of the maze and its exploratory behavior during the ensuing 10 minutes was recorded by video-camera. An observer situated outside the test room scored the time spent in the open and closed arms, as well as the number of entries into each arm of the maze. The rats were euthanitized immediately following the conclusion of the test.

CRF2 receptors = assay: CRF2 receptor autoradiography: 125I-sauvagine binding in lateral septum of treated rats; format: in vivo, rat
Method: Rats were sacrificed by exposure to CO2. Brains were removed and frozen in methylbutane cooled on dry ice before storage at −80° C. Twenty μm sections through the lateral septum were cut on a cryostat(Kopf Instruments) for receptor autoradiography.
After warming to room temperature for 1 hour, brain sections were preincubated for 5 minutes in 50 mM Tris-HCL (pH 7.5) containing 10 mM MgCl2, 2 mM EGTA (ethylene glycol-bis(β-aminoethyl ether)N,N,N′,N′-tetraacetic acid), 0.1% ovalbumin, 0.08 TIU aprotinin and 0.1 mM bacitracin. Total binding was defined using 0.15 nM ^125I-sauvagine (New England Nuclear). CRF2 specific binding was determined in the presence of 1 μM SC-241, a CRF1 selective receptor antagonist (D. H. Rominger et alJ. Pharmacol. Exp. Therap., 286, 459-468, 1998). Non-specific binding was determined using 1 μM a-helical CRF (American Peptide). Incubations were performed in preincubation buffer containing radioligand and appropriate antagonists for 150 minutes. Tissue sections were then washed twice for 5 minutes each, in PBS containing 0.01% Triton X-100. After a final water rinse, excess water was aspirated and the sections were air-dried overnight. The sections and ^125I standard strips (Amersham) were exposed to Hyperfilm μ-Max (Amersham) for 72 hours.
Quantitation of CRF2 specific binding was performed using the NIH ImageMG 1.44 program. Optical density readings were converted to nCi of ligand bound per mg of protein tissue using ^125I standard strips. Between 7 to 9 adjacent sections were quantitated per rat.

Row | Sequence | decrease in CRF2 receptor mRNA (CRF2 receptor mRNA) | reduction in the duration of freezing (rats [1]; after two brief foot-shocks, additional 10 minutes, vs saline or mismatch, FIG. 3a) | freezing in the conditioned anxiety test (rats [1]; combination study: antisense icv 7 days, DPC904 oral, FIG. 7b) | reduction of duration of freezing (rats [1]; conditioned fear, icv, return to shock box, first 10 minutes, FIG. 3a) | time in the open arms of the maze (rats [2]) | inhibition of the receptor (CRF2 receptors; administration for 5 days) | CRF2 receptor binding (CRF2 receptors; combination study, saline/methocel control 1.20±0.05) | inhibitory effect on receptor binding (CRF2 receptors; dosing for 9 days) | reduction of binding of 125I-sauvagine to CRF2 receptors in the lateral septum (CRF2 receptors; rats of the elevated plus maze experiment, FIG. 4b) | reduction in 125I-sauvagine binding to CRF2 receptors (CRF2 receptors; septal brain region of rats of the freezing assay, FIG. 3b) | decrease in receptor binding (CRF2 receptors; 9 days dosing)
1 | TGA CGC agc ggc acC AGA CC (TGACGCAGCGGCACCAGACC; sugars from the 5' end m6 d8 m6, linkages o6 s8 o5 (s phosphorothioate, o phosphodiester), methylation of C not given here) [antisense oligonucleotide] | comparable decreases | 50% | significant reductions in freezing | 50% | significantly more time in the open, exposed arms | 40-50% | 0.51±0.08 nCi/mg | 70-80% | 60% | 70% | –
2 | TGA GGC acc gga acC ACA CC (TGAGGCACCGGAACCACACC; sugars from the 5' end m6 d8 m6, linkages o6 s8 o5 (s phosphorothioate, o phosphodiester), methylation of C not given here) [Mismatch oligonucleotide, 4-base mismatch control of the antisense oligonucleotide, same chimeric chemistry, reference compound] | minimal decreases | – | – | – | not statistically different from saline-treated rats | – | – | – | – | – | minimal decreases
